Experimental data taken from patent US20180064755A1, “COMPOSITIONS AND METHODS FOR TREATING DRUG ADDICTION” (priority 2015, published 2018).

System: codeine addiction
Assay: Blind trial, rubidium chloride to treat codeine addiction
Type: in vivo, human
Method: The trial below was a blind trial with 300 mg of rubidium chloride taken once per day administered in a glass of water in the morning by a person of 90 kg; and a placebo being taken by a person of 66 kg, both of whom were addicted to codeine
The trial was undertaken with the recommendation by doctors not to proceed too quickly and to eat potassium rich foods, especially at night; The most difficult aspect was to stop the craving in the evening—a solution for people who cannot stop the craving at night would be to split the dosage of the 300 mg of Rubidium Chloride and take half in the morning and half late in the afternoon.
The aim of this trial was to stop the craving for codeine with the aid of the compound and use the enhanced energy and stimulation supplied from the compound that was tested to change addiction habits.
The trial was for 300 mg of Rubidium Chloride taken once per day taken in a glass of water in the morning in this blind study and a placebo of powdered sugar taken once per day taken in a glass of water in the morning.

[1] = 90 kg male, 300 mg once per day, self-report

SMILES: [Cl-].[Rb+] [rubidium chloride]
- craving for codeine (90 kg male addicted to codeine, 300 mg once per day in a glass of water in the morning, self-report): less craving for the drug than normal even after the first day
- energy and activity during the day [1]: much more energy than before
- stimulation from the medication [1]: very, very strong
- outcome of codeine addiction (90 kg male, 300 mg once per day, two month trial): lost the addiction to codeine
